Here are results for 17 compounds from US20160046618A1, “Cyclopropyl Fused Thiazin-2-Amine Compounds as Beta-Secretase Inhibitors and Methods of Use” (AMGEN INC., priority 2014, published 2016).

One test concerns the target human recombinant BACE1 (Homo sapiens (Human), UniProt P56817). Put plainly: In vitro enzymatic BACE1 FRET assay. In kind it is biochemical. The conditions noted are these: read-out: IC50 IP (μM) BACE1 enzyme. A digest of the protocol:
(§1)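 Ni-NTA-purified recombinant protease incubated with compound; reaction started with 50 nM FRET peptide substrate (fluorophore/quencher flanking the BACE cleavage site) and run 1 h. Stopped with Tris buffer raising pH to neutral; fluorescence read at ex 488/em 590 nm.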

A further test addresses human recombinant BACE2 (Homo sapiens (Human), UniProt Q9Y5Z0). The experiment in a line: In vitro enzymatic BACE2 FRET assay. The format is biochemical. The settings on record: read-out: IC50 IP (μM) BACE2 enzyme. In outline:
as §1

The target in a further test is Recombinant Cat D (Homo sapiens (Human), UniProt P07339). Put plainly: In vitro enzymatic Cathepsin D (Cat D) FRET assay. In kind it is biochemical. The settings on record: read-out: IC50 IP (μM) CatD. A digest of the protocol:
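Cleavage of a 20 nM FRET peptide by CHO-derived Cat D over 1 h at pH 3.5 (citrate buffer with CHAPS, 10% DMSO final). Endpoint fluorescence is read after Tris quench.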

The subject of test [1] is Aβ40 in conditioned medium of cells stably expressing Amyloid Precursor Protein (APP). The experiment in a line: In vitro BACE-1 cell-based assay (Aβ40 sandwich ELISA). The settings on record: read-out: IC50 IP (μM) BACE1 cell. In outline: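 APP-expressing cells treated 24 h at 37 °C with compound in 10-point dose response (top 100 μM or 10 μM, 0.1% DMSO final). Secreted Aβ40 in conditioned medium quantified by sandwich ELISA (pAb40 capture, biotinylated 6E10 detection, time-resolved europium fluorescence); IC50 from percent inhibition versus concentration.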

human recombinant BACE2, sequence (Q9Y5Z0 63-518): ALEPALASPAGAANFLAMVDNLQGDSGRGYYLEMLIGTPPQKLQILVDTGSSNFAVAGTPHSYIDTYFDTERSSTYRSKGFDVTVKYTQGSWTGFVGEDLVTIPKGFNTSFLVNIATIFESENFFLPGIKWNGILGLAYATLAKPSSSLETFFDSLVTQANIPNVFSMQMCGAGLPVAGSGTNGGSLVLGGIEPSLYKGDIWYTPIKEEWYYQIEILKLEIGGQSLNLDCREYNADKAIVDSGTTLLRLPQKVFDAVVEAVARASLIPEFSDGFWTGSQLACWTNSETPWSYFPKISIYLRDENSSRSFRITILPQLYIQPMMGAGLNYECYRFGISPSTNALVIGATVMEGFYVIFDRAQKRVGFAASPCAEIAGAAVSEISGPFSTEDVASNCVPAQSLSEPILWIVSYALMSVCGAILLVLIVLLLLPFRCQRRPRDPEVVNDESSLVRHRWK
human recombinant BACE1, sequence (P56817 46-501): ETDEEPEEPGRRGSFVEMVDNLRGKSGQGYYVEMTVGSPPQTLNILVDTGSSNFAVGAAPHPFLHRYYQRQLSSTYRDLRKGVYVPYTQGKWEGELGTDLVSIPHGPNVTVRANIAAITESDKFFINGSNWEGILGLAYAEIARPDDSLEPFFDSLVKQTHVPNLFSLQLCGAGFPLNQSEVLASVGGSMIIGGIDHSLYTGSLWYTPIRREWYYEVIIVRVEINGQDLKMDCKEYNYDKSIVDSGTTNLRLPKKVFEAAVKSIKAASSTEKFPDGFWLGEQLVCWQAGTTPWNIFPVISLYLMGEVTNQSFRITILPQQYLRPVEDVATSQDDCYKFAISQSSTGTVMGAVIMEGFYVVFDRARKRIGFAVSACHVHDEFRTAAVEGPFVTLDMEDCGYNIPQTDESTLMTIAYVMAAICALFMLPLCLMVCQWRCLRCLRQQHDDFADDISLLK
Recombinant Cat D, sequence (P07339 65-412): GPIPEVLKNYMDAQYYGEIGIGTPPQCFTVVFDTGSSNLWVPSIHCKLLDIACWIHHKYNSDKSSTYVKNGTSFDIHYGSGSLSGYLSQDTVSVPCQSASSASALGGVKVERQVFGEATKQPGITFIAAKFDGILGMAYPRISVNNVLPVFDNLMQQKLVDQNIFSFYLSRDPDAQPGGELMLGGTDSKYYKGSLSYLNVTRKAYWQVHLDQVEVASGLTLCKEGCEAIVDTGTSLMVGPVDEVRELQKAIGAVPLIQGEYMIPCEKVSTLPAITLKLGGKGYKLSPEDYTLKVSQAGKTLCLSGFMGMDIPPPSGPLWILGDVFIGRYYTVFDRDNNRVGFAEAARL

As for `COc1ncc(NC(=O)c2ccc(Cl)cn2)cc1[C@@]1(C)N=C(N)S[C@@]2(C(F)F)C[C@@H]12` [Example 990, N-(5-((1S,5S,6S)-3-amino-1-(difluoromethyl)-5-methyl-2-thia-4-azabicyclo[4.1.0]hept-3-en-5-yl)-6-methoxy-3-pyridinyl)-5-chloro-2-pyridinecarboxamide], the IC50 at human recombinant BACE1 was 20.8 nM; on human recombinant BACE2, 0.00465 µM; at Recombinant Cat D it was 67 µM; in test [1], 0.026 µM.
The like results for `C[C@]1(c2cc(NC(=O)c3cnc(OCC(F)(F)F)cn3)ccc2F)N=C(N)S[C@@]2(C(=O)N3CC[C@@H](F)C3)C[C@H]21` [Example 991, N-(3-((1S,5S,6S)-3-amino-1-((R)-3-fluoropyrrolidine-1-carbonyl)-5-methyl-2-thia-4-azabicyclo[4.1.0]hept-3-en-5-yl)-4-fluorophenyl)-5-(2,2,2-trifluoroethoxy)pyrazine-2-carboxamide] were, in that order, 0.297 nM, 0.0097 µM, 664 µM and 0.000265 µM.
For `C[C@]1(c2cc(NC(=O)c3cnc(OCC(F)(F)F)cn3)ccc2F)N=C(N)S[C@@]2(C(=O)N3CC[C@H](F)C3)C[C@H]21` [Example 992, N-(3-((1S,5S,6S)-3-amino-1-((S)-3-fluoropyrrolidine-1-carbonyl)-5-methyl-2-thia-4-azabicyclo[4.1.0]hept-3-en-5-yl)-4-fluorophenyl)-5-(2,2,2-trifluoroethoxy)pyrazine-2-carboxamide], in that order: 0.776 nM, 0.0125 µM, 954 µM and 0.000338 µM.
As to `C#C[C@H](C)Oc1cnc(C(=O)Nc2ccc(F)c([C@@]3(C)N=C(N)S[C@@]4(C(=O)NC5CC5)C[C@H]43)c2)cn1` [Example 993, (1S,5S,6S)-3-amino-N-cyclopropyl-5-(2-fluoro-5-(((5-(((1S)-1-methyl-2-propyn-1-yl)oxy)-2-pyrazinyl)carbonyl)amino)phenyl)-5-methyl-2-thia-4-azabicyclo[4.1.0]hept-3-ene-1-carboxamide], the 50% inhibitory concentration (IC50) at human recombinant BACE1 came to 0.48 nM; at human recombinant BACE2 it was 0.061 µM; at Recombinant Cat D it was 255 µM; in test [1], 0.000566 µM.
For `C#C[C@H](C)Oc1cnc(C(=O)Nc2ccc(F)c([C@@]3(C)N=C(N)S[C@@]4(C(=O)NC(C)(C)C)C[C@H]43)c2)cn1` [Example 994, (1S,5S,6S)-3-amino-N-tert-butyl-5-(2-fluoro-5-(((5-(((1S)-1-methyl-2-propyn-1-yl)oxy)-2-pyrazinyl)carbonyl)amino)phenyl)-5-methyl-2-thia-4-azabicyclo[4.1.0]hept-3-ene-1-carboxamide], in that order: 0.69 nM, 0.0689 µM, 215 µM and 0.00116 µM.
Turning to `CC(C)[C@@H](C)NC(=O)[C@]12C[C@H]1[C@@](C)(c1cc(NC(=O)c3cnc(OCC(F)(F)F)cn3)ccc1F)N=C(N)S2` [Example 997, (1S,5S,6S)-3-amino-5-(2-fluoro-5-(5-(2,2,2-trifluoroethoxy)pyrazine-2-carboxamido)phenyl)-5-methyl-N—((R)-3-methylbutan-2-yl)-2-thia-4-azabicyclo[4.1.0]hept-3-ene-1-carboxamide], the half-maximal inhibitory concentration (IC50) at human recombinant BACE1 stood at 0.893 nM; at human recombinant BACE2, 0.0509 µM; at Recombinant Cat D, 9.48 µM; in test [1] it was 0.00672 µM.
The like results for `C[C@]1(c2cc(NC(=O)c3cnc(OCC(F)(F)F)cn3)ccc2F)N=C(N)S[C@@]2(C(=O)N3CCOCC3)C[C@H]21` [Example 998, N-(3-((1S,5S,6S)-3-amino-5-methyl-1-(morpholine-4-carbonyl)-2-thia-4-azabicyclo[4.1.0]hept-3-en-5-yl)-4-fluorophenyl)-5-(2,2,2-trifluoroethoxy)pyrazine-2-carboxamide] were, in that order, 0.146 nM, 0.0754 µM, above 400 µM and 0.0017 µM.
For `C[C@]1(c2cc(NC(=O)c3cnc(OCC(F)(F)F)cn3)ccc2F)N=C(N)S[C@@]2(C(=O)NCC(F)F)C[C@H]21` [Example 999, (1S,5S,6S)-3-amino-N-(2,2-difluoroethyl)-5-(2-fluoro-5-(5-(2,2,2-trifluoroethoxy)pyrazine-2-carboxamido)phenyl)-5-methyl-2-thia-4-azabicyclo[4.1.0]hept-3-ene-1-carboxamide], in that order: 0.09 nM, 0.0755 µM, 180 µM and 0.00613 µM.
For the compound `CN(C)C(=O)[C@]12C[C@H]1[C@@](C)(c1cc(NC(=O)c3cnc(OCC(F)(F)F)cn3)ccc1F)N=C(N)S2` [Example 1000, (1S,5S,6S)-3-amino-5-(2-fluoro-5-(5-(2,2,2-trifluoroethoxy)pyrazine-2-carboxamido)phenyl)-N,N,5-trimethyl-2-thia-4-azabicyclo[4.1.0]hept-3-ene-1-carboxamide], the half-maximal inhibitory concentration (IC50) was 0.07 nM on human recombinant BACE1, 0.00345 µM on human recombinant BACE2, 1000 µM on Recombinant Cat D and 0.000921 µM in test [1].
`COC[C@H](C)Oc1cnc(C(=O)Nc2ccc(F)c([C@@]3(C)N=C(N)S[C@@]4(C(=O)NC5CC5)C[C@H]43)c2)cn1` [Example 1001, (1S,5S,6S)-3-amino-N-cyclopropyl-5-(2-fluoro-5-(((5-((1S)-2-methoxy-1-methylethoxy)-2-pyrazinyl)carbonyl)amino)phenyl)-5-methyl-2-thia-4-azabicyclo[4.1.0]hept-3-ene-1-carboxamide]: the IC50 on human recombinant BACE1 worked out at 0.059 nM; at human recombinant BACE2, 0.356 µM; on Recombinant Cat D, 492 µM; in test [1], 0.00589 µM.
The like results for `CC(C)(C)NC(=O)[C@]12C[C@H]1[C@@](C)(c1cc(NC(=O)c3cnc(OCC(F)(F)F)cn3)ccc1F)N=C(N)S2` [Example 1002, (1S,5S,6S)-3-amino-N-tert-butyl-5-(2-fluoro-5-(((5-(2,2,2-trifluoroethoxy)-2-pyrazinyl)carbonyl)amino)phenyl)-5-methyl-2-thia-4-azabicyclo[4.1.0]hept-3-ene-1-carboxamide] were, in that order, 1.77 nM, 0.165 µM, 82.7 µM and 0.00484 µM.
The like results for `COC[C@H](C)Oc1cnc(C(=O)Nc2ccc(F)c([C@@]3(C)N=C(N)S[C@@]4(C(=O)NC(C)(C)C)C[C@H]43)c2)cn1` [Example 1003, (1S,5S,6S)-3-amino-N-tert-butyl-5-(2-fluoro-5-(((5-((1S)-2-methoxy-1-methylethoxy)-2-pyrazinyl)carbonyl)amino)phenyl)-5-methyl-2-thia-4-azabicyclo[4.1.0]hept-3-ene-1-carboxamide] were, in that order, 5.65 nM, 0.48 µM, 297 µM and 0.021 µM.
For the compound `C#CCOc1cnc(C(=O)Nc2cc(F)c(F)c([C@@]3(C)N=C(N)S[C@@]4(C(=O)N5CCOCC5)C[C@H]43)c2)cn1` [Example 1004, N-(3-((1S,5S,6S)-3-amino-5-methyl-1-(morpholine-4-carbonyl)-2-thia-4-azabicyclo[4.1.0]hept-3-en-5-yl)-4,5-difluorophenyl)-5-(prop-2-yn-1-yloxy)pyrazine-2-carboxamide], the IC50 came out at 0.1 nM on human recombinant BACE1, 0.00235 µM on human recombinant BACE2, 14.9 µM on Recombinant Cat D and 0.000324 µM in test [1].
The like results for `C#CCOc1cnc(C(=O)Nc2ccc(F)c([C@@]3(C)N=C(N)S[C@@]4(C(=O)N5CCOCC5)C[C@H]43)c2)cn1` [Example 1005, N-(3-((1S,5S,6S)-3-amino-5-methyl-1-(morpholine-4-carbonyl)-2-thia-4-azabicyclo[4.1.0]hept-3-en-5-yl)-4-fluorophenyl)-5-(prop-2-yn-1-yloxy)pyrazine-2-carboxamide] were, in that order, 0.384 nM, 0.00516 µM, 72.1 µM and 0.00108 µM.
The like results for `C#CCOc1cnc(C(=O)Nc2ccc(F)c([C@@]3(C)N=C(N)S[C@@]4(C(=O)NC(C)(C)CF)C[C@H]43)c2)cn1` [Example 1006, (1S,5S,6S)-3-amino-N-(1-fluoro-2-methylpropan-2-yl)-5-(2-fluoro-5-(5-(prop-2-yn-1-yloxy)pyrazine-2-carboxamido)phenyl)-5-methyl-2-thia-4-azabicyclo[4.1.0]hept-3-ene-1-carboxamide] were, in that order, 0.885 nM, 0.0213 µM, 7.08 µM and 0.000575 µM.
For `COC[C@]12C[C@H]1[C@@](C)(c1cc(NC(=O)c3cnc(Cl)cn3)cc(F)c1F)N=C(N)S2` [Example 1007], in that order: 7.02 nM, 0.00484 µM, 460 µM and 0.73 µM.
With `COC[C@]12C[C@H]1[C@@](C)(c1cc(NC(=O)c3cnc(OCc4nc(C)no4)cn3)ccc1F)N=C(N)S2` [Example 1008, N-(3-((1S,5S,6S)-3-amino-1-(methoxymethyl)-5-methyl-2-thia-4-azabicyclo[4.1.0]hept-3-en-5-yl)-4-fluorophenyl)-5-((3-methyl-1,2,4-oxadiazol-5-yl)methoxy)-2-pyrazinecarboxamide], the 50% inhibitory concentration (IC50) on human recombinant BACE1 is 4.71 nM; on human recombinant BACE2, 0.195 µM; at Recombinant Cat D, above 400 µM; in test [1] it was 0.0022 µM.
